Assays:
Assay in all cases: KINOMEscan competition binding
Conditions in all cases: compound 10.0 µM
[1] = molecular target: PDGFRB (human) (UniProt P09619)
[2] = molecular target: TGFBR1 (human) (UniProt P36897)
[3] = molecular target: HIPK3 (human) (UniProt Q9H422)
[4] = molecular target: STK39 (human) (UniProt Q9UEW8)
[5] = molecular target: LIMK1 (human) (UniProt P53667)
[6] = molecular target: ULK2 (human) (UniProt Q8IYT8)
[7] = molecular target: AURKA (human) (UniProt O14965)
[8] = molecular target: MAP3K2 (human) (UniProt Q9Y2U5)
[9] = molecular target: TAOK1 (human) (UniProt Q7L7X3)
[10] = molecular target: PIP4K2B (human) (UniProt P78356)
[11] = molecular target: ROCK2 (human) (UniProt O75116)
[12] = molecular target: HUNK (human) (UniProt P57058)
[13] = molecular target: NEK1 (human) (UniProt Q96PY6)
[14] = molecular target: PRKACA (human) (UniProt P17612)
[15] = molecular target: RPS6KA2 KD1 (human) (UniProt Q15349)
[16] = molecular target: CDK19 (human) (UniProt Q9BWU1)
[17] = molecular target: BTK (human) (UniProt Q06187)
[18] = molecular target: ULK1 (human) (UniProt O75385)
[19] = molecular target: FYN (human) (UniProt P06241)
[20] = molecular target: MLTK (human) (UniProt Q9NYL2)
Chain of MLTK (human) (Q9NYL2 whole entry, looked up): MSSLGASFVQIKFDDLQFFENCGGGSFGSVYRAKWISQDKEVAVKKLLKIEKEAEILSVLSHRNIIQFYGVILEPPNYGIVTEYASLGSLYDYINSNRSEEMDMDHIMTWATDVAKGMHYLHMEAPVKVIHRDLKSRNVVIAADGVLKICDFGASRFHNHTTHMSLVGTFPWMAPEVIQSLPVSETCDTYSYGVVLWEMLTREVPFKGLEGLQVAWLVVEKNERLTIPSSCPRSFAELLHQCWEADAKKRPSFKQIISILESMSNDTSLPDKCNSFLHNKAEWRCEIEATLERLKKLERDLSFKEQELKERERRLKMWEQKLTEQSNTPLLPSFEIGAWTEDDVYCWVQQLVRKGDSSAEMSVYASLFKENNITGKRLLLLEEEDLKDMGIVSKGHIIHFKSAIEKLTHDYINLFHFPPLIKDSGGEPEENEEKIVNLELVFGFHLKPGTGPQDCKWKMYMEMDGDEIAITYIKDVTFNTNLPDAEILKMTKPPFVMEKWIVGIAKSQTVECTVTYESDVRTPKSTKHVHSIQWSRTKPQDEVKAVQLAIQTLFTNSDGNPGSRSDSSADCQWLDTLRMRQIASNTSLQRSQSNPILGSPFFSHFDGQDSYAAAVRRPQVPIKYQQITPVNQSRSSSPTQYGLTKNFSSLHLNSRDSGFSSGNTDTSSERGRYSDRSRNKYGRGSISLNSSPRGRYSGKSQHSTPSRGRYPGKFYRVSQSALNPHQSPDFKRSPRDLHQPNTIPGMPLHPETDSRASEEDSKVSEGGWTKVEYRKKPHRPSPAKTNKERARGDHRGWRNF

[21] = molecular target: MAPK9 (human) (UniProt P45984)
[22] = molecular target: RPS6KA1 KD2 (human) (UniProt Q15418)
[23] = molecular target: EPHA5 (human) (UniProt P54756)
Chain of EPHA5 (human) (P54756 whole entry, looked up): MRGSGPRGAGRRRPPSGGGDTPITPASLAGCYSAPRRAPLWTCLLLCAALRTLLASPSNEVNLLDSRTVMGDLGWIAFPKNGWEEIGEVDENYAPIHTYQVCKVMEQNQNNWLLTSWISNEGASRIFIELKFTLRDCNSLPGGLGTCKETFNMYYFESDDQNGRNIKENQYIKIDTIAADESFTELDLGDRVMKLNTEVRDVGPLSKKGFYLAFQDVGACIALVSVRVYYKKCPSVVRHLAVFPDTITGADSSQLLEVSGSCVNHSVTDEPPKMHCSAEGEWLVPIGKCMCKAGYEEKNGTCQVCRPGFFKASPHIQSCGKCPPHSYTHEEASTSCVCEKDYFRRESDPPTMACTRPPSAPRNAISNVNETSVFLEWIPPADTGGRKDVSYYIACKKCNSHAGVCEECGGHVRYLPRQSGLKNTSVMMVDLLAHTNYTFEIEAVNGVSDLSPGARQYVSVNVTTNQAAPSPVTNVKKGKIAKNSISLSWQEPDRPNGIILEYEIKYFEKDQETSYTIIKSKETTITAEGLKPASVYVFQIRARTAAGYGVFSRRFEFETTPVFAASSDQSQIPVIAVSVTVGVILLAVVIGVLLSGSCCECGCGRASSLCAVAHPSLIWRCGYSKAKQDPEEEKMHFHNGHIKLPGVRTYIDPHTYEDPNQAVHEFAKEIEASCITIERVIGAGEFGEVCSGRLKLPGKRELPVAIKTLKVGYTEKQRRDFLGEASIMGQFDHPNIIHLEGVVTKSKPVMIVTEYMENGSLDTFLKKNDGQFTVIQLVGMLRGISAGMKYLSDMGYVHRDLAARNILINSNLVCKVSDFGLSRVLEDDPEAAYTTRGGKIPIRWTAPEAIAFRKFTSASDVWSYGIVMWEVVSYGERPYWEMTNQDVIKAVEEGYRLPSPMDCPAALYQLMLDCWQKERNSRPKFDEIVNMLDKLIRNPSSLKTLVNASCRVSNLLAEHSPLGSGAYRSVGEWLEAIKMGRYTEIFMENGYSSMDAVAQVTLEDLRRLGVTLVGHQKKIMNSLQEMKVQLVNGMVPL

[24] = molecular target: ERBB4 (human) (UniProt Q15303)
[25] = molecular target: CDC2L2 (human) (UniProt Q9UQ88)
[26] = molecular target: ROS1 (human) (UniProt P08922)
Chain of ROS1 (human) (P08922 whole entry, looked up): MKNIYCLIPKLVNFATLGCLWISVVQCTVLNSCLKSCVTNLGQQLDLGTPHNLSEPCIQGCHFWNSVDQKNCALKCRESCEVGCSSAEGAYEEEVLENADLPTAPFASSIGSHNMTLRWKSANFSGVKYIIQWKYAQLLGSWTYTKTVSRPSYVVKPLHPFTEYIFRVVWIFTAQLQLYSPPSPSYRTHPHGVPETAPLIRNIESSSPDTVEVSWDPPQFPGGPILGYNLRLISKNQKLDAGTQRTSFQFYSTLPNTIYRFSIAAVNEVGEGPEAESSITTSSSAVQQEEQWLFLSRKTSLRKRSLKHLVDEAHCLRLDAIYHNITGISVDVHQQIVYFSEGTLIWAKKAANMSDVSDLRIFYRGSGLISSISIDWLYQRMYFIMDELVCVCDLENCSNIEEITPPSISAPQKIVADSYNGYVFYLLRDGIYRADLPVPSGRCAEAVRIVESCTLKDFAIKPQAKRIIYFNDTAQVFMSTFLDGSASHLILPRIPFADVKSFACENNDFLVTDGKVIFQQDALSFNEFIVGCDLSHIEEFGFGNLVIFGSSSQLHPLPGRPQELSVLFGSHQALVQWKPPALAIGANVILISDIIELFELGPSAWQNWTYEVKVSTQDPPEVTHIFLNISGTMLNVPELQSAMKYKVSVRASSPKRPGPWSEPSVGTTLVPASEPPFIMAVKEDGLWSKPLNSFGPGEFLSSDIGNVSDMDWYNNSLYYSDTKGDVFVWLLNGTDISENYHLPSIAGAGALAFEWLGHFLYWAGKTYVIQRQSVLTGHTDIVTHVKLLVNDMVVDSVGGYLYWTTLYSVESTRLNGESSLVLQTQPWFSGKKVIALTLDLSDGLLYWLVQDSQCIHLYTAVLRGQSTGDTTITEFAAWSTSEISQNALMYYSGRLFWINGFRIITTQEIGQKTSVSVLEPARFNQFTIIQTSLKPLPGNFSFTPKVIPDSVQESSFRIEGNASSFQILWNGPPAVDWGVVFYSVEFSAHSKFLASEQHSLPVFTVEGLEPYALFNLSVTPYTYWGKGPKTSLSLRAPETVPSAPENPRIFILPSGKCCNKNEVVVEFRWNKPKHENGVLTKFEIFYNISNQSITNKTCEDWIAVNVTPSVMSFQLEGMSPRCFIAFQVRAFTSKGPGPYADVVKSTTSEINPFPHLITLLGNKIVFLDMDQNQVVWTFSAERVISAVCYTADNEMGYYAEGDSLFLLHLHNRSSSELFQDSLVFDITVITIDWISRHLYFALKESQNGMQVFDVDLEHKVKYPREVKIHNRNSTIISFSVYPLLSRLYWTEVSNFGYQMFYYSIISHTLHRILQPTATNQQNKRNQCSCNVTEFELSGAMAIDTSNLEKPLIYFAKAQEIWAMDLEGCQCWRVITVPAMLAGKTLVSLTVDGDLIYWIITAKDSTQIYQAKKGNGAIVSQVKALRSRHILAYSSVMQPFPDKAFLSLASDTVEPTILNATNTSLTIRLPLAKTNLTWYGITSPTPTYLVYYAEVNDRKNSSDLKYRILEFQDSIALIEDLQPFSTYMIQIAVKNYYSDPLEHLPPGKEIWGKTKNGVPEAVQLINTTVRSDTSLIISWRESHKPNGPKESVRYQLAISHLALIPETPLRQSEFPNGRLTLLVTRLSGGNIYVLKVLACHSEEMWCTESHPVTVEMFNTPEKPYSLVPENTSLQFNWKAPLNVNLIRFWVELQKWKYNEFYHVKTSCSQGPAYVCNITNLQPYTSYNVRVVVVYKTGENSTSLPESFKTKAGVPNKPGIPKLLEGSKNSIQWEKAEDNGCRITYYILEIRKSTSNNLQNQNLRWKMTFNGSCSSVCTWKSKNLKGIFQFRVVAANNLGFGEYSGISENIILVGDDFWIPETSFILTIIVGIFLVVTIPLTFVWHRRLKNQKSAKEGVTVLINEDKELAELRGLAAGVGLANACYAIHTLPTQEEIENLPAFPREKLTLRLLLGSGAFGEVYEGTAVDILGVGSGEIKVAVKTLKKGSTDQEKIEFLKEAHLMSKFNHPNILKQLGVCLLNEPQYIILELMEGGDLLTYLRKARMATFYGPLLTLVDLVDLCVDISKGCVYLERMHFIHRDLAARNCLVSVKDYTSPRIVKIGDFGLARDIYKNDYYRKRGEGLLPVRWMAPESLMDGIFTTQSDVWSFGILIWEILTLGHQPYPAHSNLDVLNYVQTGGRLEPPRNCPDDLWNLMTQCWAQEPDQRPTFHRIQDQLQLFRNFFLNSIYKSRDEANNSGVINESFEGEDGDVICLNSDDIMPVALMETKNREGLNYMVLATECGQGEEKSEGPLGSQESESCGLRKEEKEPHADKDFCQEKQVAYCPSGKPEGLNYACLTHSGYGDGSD

[27] = molecular target: DSTYK (human) (UniProt Q6XUX3)
[28] = test system: KIT (human), P10721 [A829P]
[29] = molecular target: PIP4K2C (human) (UniProt Q8TBX8)
[30] = molecular target: MAP4K3 (human) (UniProt Q8IVH8)
[31] = molecular target: DYRK1A (human) (UniProt Q13627)
[32] = molecular target: NIM1 (human) (UniProt Q8IY84)
[33] = molecular target: MYLK2 (human) (UniProt Q9H1R3)
[34] = molecular target: GSK3A (human) (UniProt P49840)
[35] = molecular target: EGFR (human) (UniProt P00533)
[36] = molecular target: CSNK1G1 (human) (UniProt Q9HCP0)
[37] = molecular target: MARK3 (human) (UniProt P27448)
[38] = molecular target: JAK1 JH2 pseudokinase (human) (UniProt P23458)
[39] = molecular target: PI4KB (human) (UniProt Q9UBF8)
[40] = molecular target: PLK3 (human) (UniProt Q9H4B4)
Chain of PLK3 (human) (Q9H4B4 whole entry, looked up): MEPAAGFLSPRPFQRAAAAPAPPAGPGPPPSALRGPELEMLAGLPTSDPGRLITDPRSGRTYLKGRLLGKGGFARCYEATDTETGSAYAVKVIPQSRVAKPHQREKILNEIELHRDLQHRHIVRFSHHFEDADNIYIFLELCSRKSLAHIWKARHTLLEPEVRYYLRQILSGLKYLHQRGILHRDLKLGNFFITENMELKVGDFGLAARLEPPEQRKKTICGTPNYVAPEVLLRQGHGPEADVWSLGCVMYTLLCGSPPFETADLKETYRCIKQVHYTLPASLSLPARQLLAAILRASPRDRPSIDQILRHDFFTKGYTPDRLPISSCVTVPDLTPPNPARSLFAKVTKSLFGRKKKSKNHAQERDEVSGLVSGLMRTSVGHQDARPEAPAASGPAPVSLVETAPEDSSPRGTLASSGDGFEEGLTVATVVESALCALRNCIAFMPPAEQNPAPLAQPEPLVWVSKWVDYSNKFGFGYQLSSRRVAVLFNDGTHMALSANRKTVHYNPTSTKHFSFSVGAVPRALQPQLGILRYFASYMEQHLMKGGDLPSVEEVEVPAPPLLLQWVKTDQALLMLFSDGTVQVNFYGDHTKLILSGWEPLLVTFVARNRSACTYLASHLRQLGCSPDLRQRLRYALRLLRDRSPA

SMILES | kinase still bound, per cent of control [1] | kinase still bound, per cent of control [2] | kinase still bound, per cent of control [3] | kinase still bound, per cent of control [4] | kinase still bound, per cent of control [5] | kinase still bound, per cent of control [6] | kinase still bound, per cent of control [7] | kinase still bound, per cent of control [8] | kinase still bound, per cent of control [9] | kinase still bound, per cent of control [10] | kinase still bound, per cent of control [11] | kinase still bound, per cent of control [12] | kinase still bound, per cent of control [13] | kinase still bound, per cent of control [14] | kinase still bound, per cent of control [15] | kinase still bound, per cent of control [16] | kinase still bound, per cent of control [17] | kinase still bound, per cent of control [18] | kinase still bound, per cent of control [19] | kinase still bound, per cent of control [20] | also measured
CCCS(=O)(=O)Nc1ccc(F)c(C(=O)c2c[nH]c3ncc(Cl)cc23)c1F | 0% | 60% | 46% | 100% | 46% | 60% | 60% | 62% | 52% | 100% | 81% | 24% | 72% | 94% | 67% | 0.8% | 52% | 44% | 11% | 6% | kinase still bound, per cent of control [21]: 71%; kinase still bound, per cent of control [22]: 75%; kinase still bound, per cent of control [23]: 100%; kinase still bound, per cent of control [24]: 73%; kinase still bound, per cent of control [25]: 95%; kinase still bound, per cent of control [26]: 34%; kinase still bound, per cent of control [27]: 54%; kinase still bound, per cent of control [28]: 67%; kinase still bound, per cent of control [29]: 100%; kinase still bound, per cent of control [30]: 91%; kinase still bound, per cent of control [31]: 76%; kinase still bound, per cent of control [32]: 92%; kinase still bound, per cent of control [33]: 64%; kinase still bound, per cent of control [34]: 100%; kinase still bound, per cent of control [35]: 76%; kinase still bound, per cent of control [36]: 66%; kinase still bound, per cent of control [37]: 74%; kinase still bound, per cent of control [38]: 100%; kinase still bound, per cent of control [39]: 25%; kinase still bound, per cent of control [40]: 96%
CCN1CCN(Cc2ccc(NC(=O)c3ccc(C)c(/C=C/c4cnc5[nH]ccc5c4OC)c3)cc2C(F)(F)F)CC1 | 0.05% | 100% | 44% | 100% | 7.7% | 35% | 97% | 0.65% | 0.75% | 0.4% | 34% | 18% | 89% | 100% | 2.7% | 4.2% | 0.3% | 8.5% | 1.2% | 0.8% | kinase still bound, per cent of control [21]: 0.1%; kinase still bound, per cent of control [22]: 20%; kinase still bound, per cent of control [23]: 3.6%; kinase still bound, per cent of control [24]: 0.1%; kinase still bound, per cent of control [25]: 5.4%; kinase still bound, per cent of control [26]: 100%; kinase still bound, per cent of control [27]: 36%; kinase still bound, per cent of control [28]: 64%; kinase still bound, per cent of control [29]: 100%; kinase still bound, per cent of control [30]: 14%; kinase still bound, per cent of control [31]: 63%; kinase still bound, per cent of control [32]: 100%; kinase still bound, per cent of control [33]: 0.55%; kinase still bound, per cent of control [34]: 100%; kinase still bound, per cent of control [35]: 0.4%; kinase still bound, per cent of control [36]: 98%; kinase still bound, per cent of control [37]: 38%; kinase still bound, per cent of control [38]: 41%; kinase still bound, per cent of control [39]: 91%; kinase still bound, per cent of control [40]: 83%
CNC(=O)Nc1ccc(-c2nc(N3CC4CCC(C3)O4)c3cnn(C4CCC5(CC4)OCCO5)c3n2)cc1 | 89% | 100% | 42% | 100% | 95% | 90% | 100% | 95% | 100% | 100% | 100% | 100% | 100% | 75% | 100% | 100% | 90% | 100% | 70% | 77% | kinase still bound, per cent of control [21]: 85%; kinase still bound, per cent of control [22]: 91%; kinase still bound, per cent of control [23]: 92%; kinase still bound, per cent of control [24]: 100%; kinase still bound, per cent of control [25]: 97%; kinase still bound, per cent of control [26]: 81%; kinase still bound, per cent of control [27]: 100%; kinase still bound, per cent of control [28]: 89%; kinase still bound, per cent of control [29]: 100%; kinase still bound, per cent of control [30]: 94%; kinase still bound, per cent of control [31]: 100%; kinase still bound, per cent of control [32]: 100%; kinase still bound, per cent of control [33]: 100%; kinase still bound, per cent of control [34]: 82%; kinase still bound, per cent of control [35]: 62%; kinase still bound, per cent of control [36]: 54%; kinase still bound, per cent of control [37]: 92%; kinase still bound, per cent of control [38]: 83%; kinase still bound, per cent of control [39]: 100%; kinase still bound, per cent of control [40]: 100%
